This is an account of results in patent US20220323406A1, “METHODS AND COMPOSITIONS FOR DIFFERENTIATING STEM CELLS” (Massachusetts Institute of Technology, priority 2019, published 2022).

Assay [1] deals with ENR+CD organoids (ISC to Paneth cell differentiation). The assay can be described thus: Primary screen: basal (non-stimulated) lysozyme secretion LYZ.NS, 2.5-D 384-well ENR+CD organoid differentiation. The following applies: primary screen; for Z.LYZ.NS: standard z score. It counts as cell-based, mouse. The text has this:
(§1) High-throughput screening.

For assay [2] the test system is unchanged. The assay is described as follows: Primary screen: CCh-stimulated lysozyme secretion LYZ.S, 2.5-D 384-well ENR+CD organoid differentiation. It counts as cell-based, mouse. The settings on record: primary screen.
From the text: as §1

The next assay has as its system ENR+CD organoids. The assay is described as follows: Primary screen: ATP (CellTiter-Glo 3D, CTG) cell number/viability, 2.5-D 384-well ENR+CD organoids.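 For all read-outs here: compounds given at plating and again on day 3 over a 6-day differentiation from ENR+CV stem-cell-enriched precursors, ATP measured on day 6, plate median as control.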 The following applies: primary screen; for Z.CTG: standard z score. A general note: In ATP-based viability assays light output follows the ATP content of the culture.

As for `Cc1noc(-c2ccc(CSCCC(=O)O)cc2)c1NC(=O)OC(C)c1ccccc1Cl` (stereo not shown) [Ki16425], the “Dose.FC.LYZ.NS (log2 fold change)” value in assay [1] (dose 0.08 uM) was 0.001; in assay [1] (dose 0.40 uM), 0.117; in assay [1] (dose 2.00 uM) it was −0.008; in assay [1] (dose 10.00 uM) it was −0.038. For the same compound, the “Z.LYZ.NS (standard z score)” value is on record as 0.005 in assay [1] (dose 0.08 uM), 1.017 in assay [1] (dose 0.40 uM), −0.069 in assay [1] (dose 2.00 uM) and −0.327 in assay [1] (dose 10.00 uM). Also, the “Dose.FC.LYZ.S (log2 fold change)” value in assay [2] (dose 0.08 uM) is recorded as 0.022; in assay [2] (dose 0.40 uM), 0.114; in assay [2] (dose 2.00 uM), −0.021; in assay [2] (dose 10.00 uM) it was −0.071. For the same compound, the “Dose.FC.CTG (log2 fold change)” value is listed as −0.051 in the assay with ENR+CD organoids (dose 0.08 uM), −0.002 in the assay on ENR+CD organoids (dose 0.40 uM), −0.078 with ENR+CD organoids (dose 2.00 uM) and −0.165 with ENR+CD organoids (dose 10.00 uM). Also, the “Z.CTG (standard z score)” value in the assay with ENR+CD organoids (dose 0.08 uM) is −0.121; in the assay on ENR+CD organoids (dose 0.40 uM), −0.005; with ENR+CD organoids (dose 2.00 uM), −0.185; with ENR+CD organoids (dose 10.00 uM) it was −0.394.

`NC(=O)c1cccc(-c2cccc(OC(=O)NC3CCCCC3)c2)c1` [URB597]: the Dose.FC.LYZ.NS in assay [1] (dose 0.08 uM) is 0.087 log2 fold change; in assay [1] (dose 0.40 uM) it was −0.001 log2 fold change; in assay [1] (dose 2.00 uM), 0.035 log2 fold change; in assay [1] (dose 10.00 uM), −0.014 log2 fold change. For the same compound, the “Z.LYZ.NS (standard z score)” value was 0.754 in assay [1] (dose 0.08 uM), −0.007 in assay [1] (dose 0.40 uM), 0.307 in assay [1] (dose 2.00 uM) and −0.123 in assay [1] (dose 10.00 uM). Further, the Dose.FC.LYZ.S was 0.141 log2 fold change in assay [2] (dose 0.08 uM), 0.021 log2 fold change in assay [2] (dose 0.40 uM), 0.017 log2 fold change in assay [2] (dose 2.00 uM) and −0.044 log2 fold change in assay [2] (dose 10.00 uM). The Dose.FC.CTG in the assay with ENR+CD organoids (dose 0.08 uM) was 0.314 log2 fold change; with ENR+CD organoids (dose 0.40 uM), 0.065 log2 fold change; in the assay on ENR+CD organoids (dose 2.00 uM), 0.137 log2 fold change; in the assay on ENR+CD organoids (dose 10.00 uM), −0.021 log2 fold change.

Take `CO[C@H]1C[C@@H]2CC[C@@H](C)[C@@](O)(O2)C(=O)C(=O)N2CCCC[C@H]2C(=O)O[C@H]([C@H](C)C[C@@H]2CC[C@@H](OCCO)[C@H](OC)C2)CC(=O)[C@H](C)/C=C(\C)[C@@H](O)[C@@H](OC)C(=O)[C@H](C)C[C@H](C)/C=C/C=C/C=C/1C` [Everolimus (RAD001)]: the Dose.FC.LYZ.NS in assay [1] (dose 0.08 uM) is 0.068 log2 fold change; in assay [1] (dose 0.40 uM), 0.110 log2 fold change; in assay [1] (dose 2.00 uM), −0.003 log2 fold change; in assay [1] (dose 10.00 uM), −0.024 log2 fold change. For the same compound, the Z.LYZ.NS in assay [1] (dose 0.08 uM) is reported as 0.590; in assay [1] (dose 0.40 uM), 0.956; in assay [1] (dose 2.00 uM) it was −0.030; in assay [1] (dose 10.00 uM) it was −0.210. The Dose.FC.LYZ.S in assay [2] (dose 0.08 uM) is −0.012 log2 fold change; in assay [2] (dose 0.40 uM), −0.007 log2 fold change; in assay [2] (dose 2.00 uM) it was −0.039 log2 fold change; in assay [2] (dose 10.00 uM) it was −0.096 log2 fold change. The Dose.FC.CTG is listed as 0.392 log2 fold change with ENR+CD organoids (dose 0.08 uM), 0.127 log2 fold change in the assay with ENR+CD organoids (dose 0.40 uM), 0.132 log2 fold change in the assay with ENR+CD organoids (dose 2.00 uM) and −0.111 log2 fold change in the assay with ENR+CD organoids (dose 10.00 uM). Besides, the Z.CTG in the assay with ENR+CD organoids (dose 0.08 uM) was 0.936; in the assay on ENR+CD organoids (dose 0.40 uM), 0.304; in the assay on ENR+CD organoids (dose 2.00 uM), 0.314; in the assay with ENR+CD organoids (dose 10.00 uM), −0.266.

On to `CNC(=O)c1cc(Oc2ccc(NC(=O)Nc3cc(C(C)(C)C)nn3-c3ccc4ncccc4c3)c(F)c2)ccn1` [DCC-2036 (Rebastinib)], for which the Dose.FC.LYZ.NS in assay [1] (dose 0.08 uM) is 0.259 log2 fold change; in assay [1] (dose 0.40 uM), 0.128 log2 fold change; in assay [1] (dose 2.00 uM), 0.073 log2 fold change; in assay [1] (dose 10.00 uM), −0.209 log2 fold change. For the same compound, the Z.LYZ.NS is 2.256 in assay [1] (dose 0.08 uM), 1.116 in assay [1] (dose 0.40 uM), 0.637 in assay [1] (dose 2.00 uM) and −1.823 in assay [1] (dose 10.00 uM). Besides, the Dose.FC.LYZ.S was 0.358 log2 fold change in assay [2] (dose 0.08 uM), 0.186 log2 fold change in assay [2] (dose 0.40 uM), 0.054 log2 fold change in assay [2] (dose 2.00 uM) and −0.244 log2 fold change in assay [2] (dose 10.00 uM). Further, the Dose.FC.CTG is 0.216 log2 fold change with ENR+CD organoids (dose 0.08 uM), 0.218 log2 fold change in the assay on ENR+CD organoids (dose 0.40 uM), −0.038 log2 fold change with ENR+CD organoids (dose 2.00 uM) and −0.322 log2 fold change in the assay with ENR+CD organoids (dose 10.00 uM). Further, the Z.CTG was 0.516 in the assay on ENR+CD organoids (dose 0.08 uM), 0.520 in the assay with ENR+CD organoids (dose 0.40 uM), −0.091 in the assay on ENR+CD organoids (dose 2.00 uM) and −0.769 in the assay on ENR+CD organoids (dose 10.00 uM).
